This is an account of results in patent US20030162783A1 (priority 1999, published 2003).

SMILES strings stand for the structures.

Series [1] has as its system Chronic Constriction Injury (CCI) rats, thermal hyperalgesia. Description: Test C: Neuropathic pain model (Chronic Constriction Injury), thermal hyperalgesia paw-withdrawal. It is filed as in vivo. The note with it: Rattus norvegicus; for inhibition in vivo at 15 mg/kg/day / inhibition in vivo at 30 mg/kg/day: oral t.i.d., read-out: Test C (% Inh.): percent decrease in hyperalgesia at the MED; for minimal effective dose: po, 120 h, orally three times daily for 5 days, read-out: Test C MED (minimum effective dose). An excerpt:
Test C: Neuropathic Pain Model (Chronic Constriction Injury):
(Mean of vehicle group−Mean of compound group)/(Mean of vehicle group)×100

In series [2] the test system is formalin-induced nociceptive behaviors in rats. Description: Test B: Formalin test (formalin-induced nociceptive behaviors, paw flinches). The note with it: dosed three hours prior to formalin; for Test B First phase Dose (% Inh.): % inhibition of nociceptive response: first phase (0-5 min); for Test B Second phase Dose (% Inh.): % inhibition of nociceptive response: second phase (20-35 min). The format is in vivo, rat. As to the method: In the test, two distinctive phases of formalin-induced behaviors are observed. A first phase response, caused by acute nociception to the noxious chemical (formalin) injected into the paw, occurs between zero and five minutes. […] After the quiescent period a second phase response, caused by sensitization of the central neurons in the dorsal horn, occurs after 15 minutes and lasts up to 60 minutes. Sensitization of the central neurons in the spine augments a noxious afferent input and causes a stronger pain barrage to be transmitted to the brain. Therefore, inhibition of the second phase response indicates a central mechanism of drug action.
The procedure for the formalin test is as follows: male rats are placed in a plexiglass chamber and observed for 30-45 min. to observe their baseline activity. Animals are either pretreated with vehicle or with different doses of a test compound. Animals are dosed with vehicle or test compound three hours prior to injection of 0.05 mL of sterile 1% formalin under the dorsal skin of a hind paw. The number of paw flinches (responses) during the first phase (0-5 min.) and the second phase (20-35 min.) are scored and recorded. Flinch response is compared with the mean score of a saline control group and calculated as percentage inhibition. […] First phase responses may be inhibited by compounds that act peripherally and by compounds that act centrally.
Student's t-test was used for statistical analysis to determine the significance of compound effects. Data are reported as a dose that yielded a % inhibition of a response.

Series [3] addresses T1, NMDA receptor glycine site (Rattus norvegicus, UniProt P35439).
T1 construct: brain membranes bearing the receptor; tissue Analytical Biological Services Inc; host or cells: rat brain membranes (cerebral cortex and hippocampus, male Sprague Dawley rats)
Description: Test A: Inhibition of binding of [3H]-MDL105,519 to brain membranes. The note with it: [3H]MDL105,519 1.2 nM, brain membranes (rat and human membranes described; table does not say which). An excerpt:
Test A: Inhibition of Binding of [^3H]-MDL105,519:
Binding of compounds to the NMDA receptor glycine site may be assessed by measuring the ability of test compounds to inhibit the binding of tritiated MDL105,519 to brain membranes bearing the receptor.
Briefly, fresh brain tissue including cerebral cortex and hippocampus from male Sprague Dawley rats was homogenized in 0.32 M sucrose and centrifuged at low speed to separate cellular membranes from other cellular components. The membranes were then washed 3 times using deionized water, followed by treatment with 0.04% Triton X-100. Finally, membranes were washed six times in 50 mM Tris citrate buffer, pH 7.4, and frozen at −80° C. until use.
[^3H]MDL105,519 (72 Ci/mmol) was purchased from Amersham. Cold MDL105,519 was purchased from Sigma/RBI. […] On the day of the experiment, brain membranes were thawed at room temperature and suspended in 50 mM tris acetate buffer, pH 7.4 (“TAB”). Seventy-five micro grams per milliliter protein (by using the BioRad dye) were used for competition binding. The experiments were carried out using 96-well plates. […] Non specific binding was determined by using 100 μM of unlabeled MDL105,519. […] After incubation, unbound [^3H]MDL105,519 was removed by filtration onto GF/B Unifilter plates using a Packard harvester. Filters were washed four times with ice cold TAB (total of 1.2 mL buffer). The plates were dried overnight at room temperature and bound radioactivity was measured on a Packard TopCount after the addition of 45 μL per well of the MICROSCINT O.
Human brain membranes were obtained from Analytical Biological Services Inc., and assays were performed as described for rat membranes.
Data was analyzed using a Microsoft Excel spreadsheet and GraphPad Prizm software and potency of compounds is expressed as the Ki (nM).

In the case of `O=c1c2ccc(Cl)cc2[nH]c2c(O)nn(Cc3cc4ccccc4s3)c(=O)c12` [Ex. 13, 7-Chloro-4-hydroxy-2-(benzo[b]thien-2-ylmethyl)-1,2,5,10-tetrahydropyridazino[4,5-b]quinoline-1,10-dione], in series [1], the inhibition in vivo at 15 mg/kg/day amounted to 1% and the minimal effective dose was determined as 15 mg/kg/day.

For `CS(=O)(=O)O.O=c1c2ccc(Cl)cc2[nH]c2c(O)nn(Cc3cnccn3)c(=O)c12` [Ex. 6, 7-Chloro-4-hydroxy-2-(pyrazin-2-ylmethyl)-1,2,5,10-tetrahydropyridazino[4,5-b]quinoline-1,10-dione methanesulfonate], in series [1], the inhibition in vivo at 30 mg/kg/day worked out at 64% and the minimal effective dose was 30 mg/kg/day.

As for `CS(=O)(=O)O.O=c1c2ccc(Cl)cc2[nH]c2c(O)nn(Cc3cccnc3)c(=O)c12` [Ex. 2, 7-Chloro-4-hydroxy-2-(3-pyridylmethyl)-1,2,5,10-tetrahydropyridazino[4,5-b]quinoline-1,10-dione Methanesulfonate], in series [1], the inhibition in vivo at 30 mg/kg/day amounted to 59% and the minimal effective dose turned out to be 30 mg/kg/day. For the same compound, in series [2] (dose 200 (dose unit not given)), the “Test B First phase Dose (% Inh.): % inhibition of nociceptive response” value is recorded as 200 (74%) and the “Test B Second phase Dose (% Inh.): % inhibition of nociceptive response” value is recorded as 200 (71%).

As to `CS(=O)(=O)O.O=c1c2ccc(Cl)cc2[nH]c2c(O)nn(Cc3ccncc3)c(=O)c12` [Ex. 1, 7-Chloro-4-hydroxy-2-(4-pyridylmethyl)-1,2,5,10-tetrahydropyridazino[4,5-b]quinoline-1,10-dione methanesulfonate], in series [1], the inhibition in vivo at 30 mg/kg/day is 71% and the minimal effective dose was 30 mg/kg/day. In series [2] (dose 70 (dose unit not given)), the “Test B First phase Dose (% Inh.): % inhibition of nociceptive response” value was 70 (52%) and the “Test B Second phase Dose (% Inh.): % inhibition of nociceptive response” value is 70 (57%).

The Ki is a measure of affinity in units of concentration, obtained from inhibition or displacement. High values mean a looser hold on the target, low ones a stronger hold on the target. Take `O=c1c2ccc(Cl)cc2[nH]c2c(O)nn(Cc3ncc[nH]3)c(=O)c12` [Ex. 15, 7-Chloro-4-hydroxy-2-(imidazol-2-ylmethyl)-1,2,5,10-tetrahydropyridazino[4,5-b]quinoline-1,10-dione]: the affinity in series [3], expressed as Ki, was 103 nM.

Turning to `O=c1c2ccc(Cl)cc2[nH]c2c(O)nn(Cc3ccnc4ccccc34)c(=O)c12` [Ex. 5, 7-Chloro-4-hydroxy-2-(quinolin-4-ylmethyl)-1,2,5,10-tetrahydropyridazino[4,5-b]quinoline-1,10-dione], the inhibition constant (Ki) in series [3] was determined as 371 nM.

The compound `O=c1c2ccc(Cl)cc2[nH]c2c(O)nn(Cc3ccncn3)c(=O)c12` had a Ki in series [3] of 513 nM.

Turning to `O=c1c2ccc(Cl)cc2[nH]c2c(O)nn(Cc3cccs3)c(=O)c12` [Ex. 11, 7-Chloro-4-hydroxy-2-(thien-2-ylmethyl)-1,2,5,10-tetrahydropyridazino[4,5-b]quinoline-1,10dione], in series [1], the inhibition in vivo at 15 mg/kg/day was -17% and the minimal effective dose was 15 mg/kg/day.

As usually defined, the melting point is the temperature of the solid-liquid transition. `O=c1c2ccc(Cl)cc2[nH]c2c(O)nn(Cc3ccco3)c(=O)c12` [Ex. 9, 7-Chloro-4hydroxy-2-(furan-2-ylmethyl)-1 2,5,10-tetrahydropyridazino[4,5-b]quinoline-1,10-dione] registered a melting point of over 265 °C. Also, the Ki in series [3] came out at 61 nM. In series [1], the inhibition in vivo at 15 mg/kg/day came out at 77% and the minimal effective dose came to 15 mg/kg/day. For the same compound, in series [2] (dose 200 (dose unit not given)), the “Test B First phase Dose (% Inh.): % inhibition of nociceptive response” value is listed as 200 (56%) and the “Test B Second phase Dose (% Inh.): % inhibition of nociceptive response” value is 200 (46%).

Consider `O=c1c2ccc(Cl)cc2[nH]c2c(O)nn(Cc3ccsc3)c(=O)c12` [Ex. 12, 7-Chloro-4-hydroxy-2-(thien-3-ylmethyl)-1,2,5,10-tetrahydropyridazino[4,5-b]quinoline-1,10-dione], for which, in series [1], the inhibition in vivo at 15 mg/kg/day was 17% and the minimal effective dose stood at 15 mg/kg/day.

With `O=c1c2ccc(Cl)cc2[nH]c2c(O)nn(Cc3cc4ccccc4o3)c(=O)c12` [Ex. 4, 7-Chloro-4-hydroxy-2-benzo[d]furan-2-ylmethyl-1,2,5,10-tetrahydropyridazino[4,5-b]quinoline-1,10-dione], in series [1], the inhibition in vivo at 30 mg/kg/day came out at 44% and the minimal effective dose is 30 mg/kg/day.
